Assay results as given in the NIST ThermoML archive (doi:10.1021/je060271a).
Numbers after ± are expanded uncertainties.

Conditions: 303.15 K, Liquid, Vibrating tube method

CCCCC(=O)OCC(COC(=O)CCCC)(COC(=O)CCCC)COC(=O)CCCC [pentaerythritol tetrapentanoate]
Conditions | mass density [kg/m3]
1387.7 kPa | 1011.7 ± 1.2
1391.5 kPa | 1011.7 ± 1.2
1395 kPa | 1011.6 ± 1.2
1398.3 kPa | 1011.8 ± 1.2
1401.8 kPa | 1011.7 ± 1.2
1405.8 kPa | 1011.7 ± 1.2
1409.2 kPa | 1011.8 ± 1.2
1413.1 kPa | 1011.7 ± 1.2
1416.4 kPa | 1011.8 ± 1.2
1419.7 kPa | 1011.8 ± 1.2
1423.1 kPa | 1011.7 ± 1.2
1427 kPa | 1011.8 ± 1.2
1430.8 kPa | 1011.8 ± 1.2
1434.2 kPa | 1011.9 ± 1.2
1437.9 kPa | 1011.6 ± 1.2
1441.9 kPa | 1011.8 ± 1.2
1445.5 kPa | 1011.7 ± 1.2
1449 kPa | 1011.8 ± 1.2
1453.3 kPa | 1011.8 ± 1.2
1456.6 kPa | 1011.8 ± 1.2
1460.5 kPa | 1011.7 ± 1.2
1464.6 kPa | 1011.9 ± 1.2
1467.9 kPa | 1011.8 ± 1.2
1471.8 kPa | 1011.8 ± 1.2
1475.9 kPa | 1011.8 ± 1.2
1479.9 kPa | 1011.8 ± 1.2
1483.5 kPa | 1011.8 ± 1.2
1487 kPa | 1011.7 ± 1.2
1491.7 kPa | 1011.8 ± 1.2
1495.5 kPa | 1011.9 ± 1.2
1499.2 kPa | 1011.8 ± 1.2
1503.7 kPa | 1011.9 ± 1.2
1507.5 kPa | 1011.7 ± 1.2
1511.2 kPa | 1011.8 ± 1.2
1515 kPa | 1011.7 ± 1.2
1519.8 kPa | 1011.7 ± 1.2
1523.7 kPa | 1011.8 ± 1.2
1527.3 kPa | 1011.8 ± 1.2
1532.2 kPa | 1011.8 ± 1.2
1536 kPa | 1011.7 ± 1.2
1540 kPa | 1011.8 ± 1.2
1544.5 kPa | 1011.8 ± 1.2
1548.8 kPa | 1011.7 ± 1.2
1552.7 kPa | 1011.8 ± 1.2
1556.3 kPa | 1011.9 ± 1.2
1561.3 kPa | 1011.9 ± 1.2
1565.3 kPa | 1011.8 ± 1.2
1569.5 kPa | 1011.8 ± 1.2
1573.5 kPa | 1011.9 ± 1.2
1577.5 kPa | 1011.9 ± 1.2
1581.8 kPa | 1011.9 ± 1.2
1585.8 kPa | 1011.8 ± 1.2
1590.8 kPa | 1011.9 ± 1.2
1595 kPa | 1011.8 ± 1.2
1599 kPa | 1011.9 ± 1.2
1604.2 kPa | 1011.9 ± 1.2
1608.2 kPa | 1011.9 ± 1.2
1612.5 kPa | 1011.9 ± 1.2
1617.8 kPa | 1012 ± 1.2
1621.9 kPa | 1011.9 ± 1.2
1626.6 kPa | 1011.9 ± 1.2
1630.8 kPa | 1011.8 ± 1.2
1635 kPa | 1011.9 ± 1.2
1640 kPa | 1012 ± 1.2
1644.2 kPa | 1012 ± 1.2
1648.7 kPa | 1011.8 ± 1.2
1653.9 kPa | 1012.1 ± 1.2
1658.9 kPa | 1011.8 ± 1.2
1663.4 kPa | 1011.9 ± 1.2
1668.6 kPa | 1011.9 ± 1.2
1673.2 kPa | 1011.8 ± 1.2
1677.7 kPa | 1011.8 ± 1.2
1683.2 kPa | 1011.9 ± 1.2
1687.7 kPa | 1012.1 ± 1.2
1692.6 kPa | 1012 ± 1.2
1697.3 kPa | 1011.9 ± 1.2
1703 kPa | 1011.9 ± 1.2
1707.7 kPa | 1012 ± 1.2
1712 kPa | 1011.9 ± 1.2
1717.8 kPa | 1011.9 ± 1.2
1722.5 kPa | 1011.9 ± 1.2
1727.3 kPa | 1012 ± 1.2
1732.9 kPa | 1011.9 ± 1.2
1737.7 kPa | 1012.1 ± 1.2
1742.9 kPa | 1012.1 ± 1.2
1747.8 kPa | 1012 ± 1.2
1753.7 kPa | 1011.9 ± 1.2
1758.4 kPa | 1012 ± 1.2
1763.8 kPa | 1012 ± 1.2
1768.6 kPa | 1012 ± 1.2
1774.7 kPa | 1011.9 ± 1.2
1779.9 kPa | 1012.1 ± 1.2
1784.9 kPa | 1012 ± 1.2
1791 kPa | 1011.9 ± 1.2
1796 kPa | 1012 ± 1.2
1800.9 kPa | 1012.1 ± 1.2
1807.3 kPa | 1012 ± 1.2
1812.5 kPa | 1012 ± 1.2
1817.6 kPa | 1012.1 ± 1.2
1824 kPa | 1011.9 ± 1.2
1829.5 kPa | 1012.1 ± 1.2
1834.9 kPa | 1012 ± 1.2
1840.1 kPa | 1012 ± 1.2
1846.6 kPa | 1012 ± 1.2
1852.1 kPa | 1012 ± 1.2
1857.5 kPa | 1012 ± 1.2
1862.9 kPa | 1012 ± 1.2
1869.5 kPa | 1012.1 ± 1.2
1874.8 kPa | 1012.1 ± 1.2
1881.8 kPa | 1012 ± 1.2
1887 kPa | 1012.1 ± 1.2
1892.9 kPa | 1012 ± 1.2
1898.6 kPa | 1012.1 ± 1.2
1904.4 kPa | 1012 ± 1.2
1911.3 kPa | 1012.1 ± 1.2
1916.8 kPa | 1012.1 ± 1.2
1923.1 kPa | 1012.1 ± 1.2
1930 kPa | 1012 ± 1.2
1935.6 kPa | 1012.1 ± 1.2
1941.3 kPa | 1011.9 ± 1.2
1947.2 kPa | 1012.1 ± 1.2
1954.3 kPa | 1012 ± 1.2
1960.6 kPa | 1012 ± 1.2
1966.7 kPa | 1012.1 ± 1.2
1972.9 kPa | 1012.1 ± 1.2
1980.4 kPa | 1012.1 ± 1.2
1986.3 kPa | 1012.1 ± 1.2
1992.3 kPa | 1012.1 ± 1.2
1999.8 kPa | 1012.1 ± 1.2
2006.4 kPa | 1012.1 ± 1.2
2012.5 kPa | 1012.1 ± 1.2
2018.9 kPa | 1012.1 ± 1.2
2026.4 kPa | 1012.1 ± 1.2
2033.5 kPa | 1012.1 ± 1.2
2039.7 kPa | 1012.1 ± 1.2
2046.1 kPa | 1012.1 ± 1.2
2053.9 kPa | 1012.3 ± 1.2
2060.5 kPa | 1012.1 ± 1.2
2068.3 kPa | 1012.2 ± 1.2
2074.9 kPa | 1012.1 ± 1.2
2081.9 kPa | 1012.2 ± 1.2
2090 kPa | 1012.3 ± 1.2
2096.8 kPa | 1012.1 ± 1.2
2103.5 kPa | 1012.2 ± 1.2
2109.8 kPa | 1012.1 ± 1.2
2118.5 kPa | 1012.2 ± 1.2
2125.2 kPa | 1012.1 ± 1.2
2132.5 kPa | 1012.3 ± 1.2
2140.9 kPa | 1012.4 ± 1.2
2147.8 kPa | 1012.2 ± 1.2
2155.4 kPa | 1012.3 ± 1.2
2162.7 kPa | 1012.2 ± 1.2
2170 kPa | 1012.3 ± 1.2
2178.5 kPa | 1012.3 ± 1.2
2185.3 kPa | 1012.3 ± 1.2
2192.6 kPa | 1012.2 ± 1.2
2201.3 kPa | 1012.3 ± 1.2
2208.7 kPa | 1012.3 ± 1.2
2216.2 kPa | 1012.1 ± 1.2
2223.6 kPa | 1012.2 ± 1.2
